What was measured:
Assay in all cases: weeding effect in post-emergence stage
Assay type in all cases: in vivo
[1] = tested on: Beckmannia syzigachne
In short: (§1)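 Potted weeds were sown, covered with 0.5-2 cm soil and grown in a greenhouse, then sprayed at the 2-3 leaf stage (2 weeks after sowing) via spray tower; compounds in acetone with Tween 80 and 1.5 liter/ha methyl oleate concentrate; doses 500-7.5 g a.i./ha. Fresh-weight control scored on 0-5 levels after 3 weeks; triplicate means.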

[2] = tested on: Rorippa indica
In short: as §1

[3] = tested on: Conyza japonica
In short: as §1

[4] = tested on: Alopecurus japonicus
In short: as §1

SMILES | weeding effect in post-emergence stage, Beckmannia syzigachne (activity level) ([1]; dose 15 g a.i./ha) | weeding effect in post-emergence stage, Rorippa indica (activity level) ([2]; dose 15 g a.i./ha) | weeding effect in post-emergence stage, Conyza japonica (activity level) ([3]; dose 15 g a.i./ha) | weeding effect in post-emergence stage, Alopecurus japonicus (activity level) ([4]; dose 15 g a.i./ha) | weeding effect in post-emergence stage, Beckmannia syzigachne (activity level) ([1]; dose 125 g a.i./ha) | weeding effect in post-emergence stage, Rorippa indica (activity level) ([2]; dose 125 g a.i./ha) | weeding effect in post-emergence stage, Conyza japonica (activity level) ([3]; dose 125 g a.i./ha) | weeding effect in post-emergence stage, Alopecurus japonicus (activity level) ([4]; dose 125 g a.i./ha) | weeding effect in post-emergence stage, Beckmannia syzigachne (activity level) ([1]; dose 7.5 g a.i./ha) | weeding effect in post-emergence stage, Rorippa indica (activity level) ([2]; dose 7.5 g a.i./ha) | weeding effect in post-emergence stage, Conyza japonica (activity level) ([3]; dose 7.5 g a.i./ha) | weeding effect in post-emergence stage, Alopecurus japonicus (activity level) ([4]; dose 7.5 g a.i./ha)
CCOC(=O)[C@]1(CBr)CC(c2cc(-n3c(=O)n(C)c(=S)n(C)c3=O)c(F)cc2Cl)=NO1 [31(S)] | 5 (Level 5: growth control rate is above 85%) | 5 (Level 5: growth control rate is above 85%) | 5 (Level 5: growth control rate is above 85%) | 5 (Level 5: growth control rate is above 85%) | – | – | – | – | – | – | – | –
CCOC(=O)[C@]1(C(F)(F)F)CC(c2cc(-n3c(=O)n(C)c(=S)n(C)c3=O)c(F)cc2Cl)=NO1 [33(S)] | 5 (Level 5: growth control rate is above 85%) | 5 (Level 5: growth control rate is above 85%) | 5 (Level 5: growth control rate is above 85%) | 5 (Level 5: growth control rate is above 85%) | – | – | – | – | – | – | – | –
CCOC(=O)[C@@]1(CCF)CC(c2cc(-n3c(=O)n(C)c(=S)n(C)c3=O)c(F)cc2Cl)=NO1 [34(S)] | – | – | – | – | 5 (Level 5: growth control rate is above 85%) | 5 (Level 5: growth control rate is above 85%) | 5 (Level 5: growth control rate is above 85%) | 5 (Level 5: growth control rate is above 85%) | – | – | – | –
CCOC(=O)COC[C@]1(C(=O)OCC)CC(c2cc(-n3c(=O)n(C)c(=S)n(C)c3=O)c(F)cc2Cl)=NO1 [54(S)] | 5 (Level 5: growth control rate is above 85%) | 5 (Level 5: growth control rate is above 85%) | 5 (Level 5: growth control rate is above 85%) | 5 (Level 5: growth control rate is above 85%) | – | – | – | – | – | – | – | –
COC(=O)[C@@]1(c2ccccc2)CC(c2cc(-n3c(=O)n(C)c(=S)n(C)c3=O)c(F)cc2Cl)=NO1 [56(S)] | 5 (Level 5: growth control rate is above 85%) | 5 (Level 5: growth control rate is above 85%) | 5 (Level 5: growth control rate is above 85%) | 5 (Level 5: growth control rate is above 85%) | – | – | – | – | – | – | – | –
COC(=O)[C@]1(Cc2ccccc2)CC(c2cc(-n3c(=O)n(C)c(=S)n(C)c3=O)c(F)cc2Cl)=NO1 [59(S)] | 5 (Level 5: growth control rate is above 85%) | 5 (Level 5: growth control rate is above 85%) | 5 (Level 5: growth control rate is above 85%) | 5 (Level 5: growth control rate is above 85%) | – | – | – | – | – | – | – | –
CCOC(=O)[C@]1(CC)CC(c2cc(-n3c(=O)cc(C(F)(F)F)n(C)c3=O)c(F)cc2Cl)=NO1 [105(S)] | – | – | – | – | 5 (Level 5: growth control rate is above 85%) | 5 (Level 5: growth control rate is above 85%) | 5 (Level 5: growth control rate is above 85%) | 5 (Level 5: growth control rate is above 85%) | – | – | – | –
CCOC(=O)[C@@]1(C2CC2)CC(c2cc(-n3c(=O)cc(C(F)(F)F)n(C)c3=O)c(F)cc2Cl)=NO1 [119(S)] | – | – | – | – | 5 (Level 5: growth control rate is above 85%) | 5 (Level 5: growth control rate is above 85%) | 5 (Level 5: growth control rate is above 85%) | 5 (Level 5: growth control rate is above 85%) | 5 (Level 5: growth control rate is above 85%) | 4 (Level 4: growth control rate is greater than or equal to 60% and less than 85%) | 4 (Level 4: growth control rate is greater than or equal to 60% and less than 85%) | 5 (Level 5: growth control rate is above 85%)
CCOC(=O)[C@@]1(C2CCC2)CC(c2cc(-n3c(=O)cc(C(F)(F)F)n(C)c3=O)c(F)cc2Cl)=NO1 [126(S)] | 5 (Level 5: growth control rate is above 85%) | 5 (Level 5: growth control rate is above 85%) | 5 (Level 5: growth control rate is above 85%) | 5 (Level 5: growth control rate is above 85%) | – | – | – | – | – | – | – | –
COC(=O)[C@@]1(F)CC(c2cc(-n3c(=O)cc(C(F)(F)F)n(C)c3=O)c(F)cc2Cl)=NO1 [129(S)] | 5 (Level 5: growth control rate is above 85%) | 5 (Level 5: growth control rate is above 85%) | 5 (Level 5: growth control rate is above 85%) | 5 (Level 5: growth control rate is above 85%) | – | – | – | – | – | – | – | –
CCOC(=O)[C@]1(CF)CC(c2cc(-n3c(=O)cc(C(F)(F)F)n(C)c3=O)c(F)cc2Cl)=NO1 [132(S)] | 5 (Level 5: growth control rate is above 85%) | 5 (Level 5: growth control rate is above 85%) | 5 (Level 5: growth control rate is above 85%) | 5 (Level 5: growth control rate is above 85%) | – | – | – | – | – | – | – | –
CCOC(=O)[C@]1(C(F)F)CC(c2cc(-n3c(=O)cc(C(F)(F)F)n(C)c3=O)c(F)cc2Cl)=NO1 [134(S)] | 5 (Level 5: growth control rate is above 85%) | 5 (Level 5: growth control rate is above 85%) | 5 (Level 5: growth control rate is above 85%) | 5 (Level 5: growth control rate is above 85%) | – | – | – | – | – | – | – | –

Source: patent US12509452B2, “Substituted-isoxazoline-containing aromatic compound, preparation method therefor, herbicidal composition and use thereof” (QINGDAO KINGAGROOT CHEMICAL COMPOUND CO., LTD., priority 2019, dated 2025)
